From US9376391B2, “Difluoromethyl-nicotinic-tetrahydronaphthyl carboxamides as fungicides” (BAYER CROPSCIENCE AKTIENGESELLSCHAFT, priority 2012, dated 2016)

How the values were obtained:
[1] = log P by HPLC on reversed phase columns (EEC directive 79/831 Annex V.A8); assay type: physicochemical; conditions: Table 1, formula (I); HPLC/LC-MS at pH 2.7, 0.1% formic acid in water / acetonitrile, gradient 10% to 95%
Alternaria brassicae = test: In vivo preventive test on Alternaria brassicae (leaf spot on radish); conditions: spray, graded 6 days after contamination vs control plants
Method: In Vivo Preventive Test on Alternaria brassicae (Leaf Spot on Radish)
(§1) The active ingredients tested are prepared by homogenization in a mixture of acetone/tween/DMSO, and then diluted with water to obtain the desired active material concentration.
Radish plants (“Pernod Clair” variety), sown in starter cups on a 50/50 peat soil-pozzolana substrate and grown at 17° C., are treated at the cotyledon stage by spraying with the active ingredient prepared as described above. Plants, used as controls, are treated with the mixture of acetone/tween/DMSO/water not containing the active material.
After 24 hours, the plants are contaminated by spraying the cotyledons with an aqueous suspension of Alternaria brassicae spores (50 000 spores per ml). The spores are collected from a 15-day-old culture. The contaminated radish plants are incubated at 20° C. and at 100% relative humidity.
Grading (% of efficacy) is carried out 6 days after the contamination, in comparison with the control plants.

Pyrenophora teres = test: In vivo preventive test on Pyrenophora teres (net blotch on barley); conditions: for Eff. %: barley, spray, graded 14 days after contamination vs control plants
Method: In Vivo Preventive Test on Pyrenophora teres (Net Blotch on Barley)
as §1
Barley plants (“Plaisant” variety), sown in starter cups on a 50/50 peat soil-pozzolana substrate and grown at 22° C., are treated at the 1-leaf stage (10 cm height) by spraying with the active ingredient prepared as described above. Plants, used as controls, are treated with the mixture of acetone/tween/DMSO/water not containing the active material.
After 24 hours, the plants are contaminated by spraying the leaves with an aqueous suspension of Pyrenophora teres spores (12 000 spores per ml). The spores are collected from a 12-day-old culture. The contaminated barley plants are incubated for 48 hours at 20° C. and at 100% relative humidity, and then for 12 days at 20° C. at 70-80% relative humidity.
Grading (% of efficacy) is carried out 14 days after the contamination, in comparison with the control plants. plants.

Puccinia recondita = test: In vivo preventive test on Puccinia recondita (brown rust on wheat); conditions: for Eff. %: wheat, spray, graded 12 days after contamination vs control plants
Method: In Vivo Preventive Test on Puccinia recondita (Brown Rust on Wheat) […] Wheat plants (“Scipion” variety), sown in starter cups on a 50/50 peat soil-pozzolana substrate and grown at 22° C., are treated at the 1-leaf stage (10 cm height) by spraying with the active ingredient prepared as described above. Plants, used as controls, are treated with the mixture of acetone/tween/DMSO/water not containing the active material. After 24 hours, the plants are contaminated by spraying the leaves with an aqueous suspension of Puccinia recondita spores (100 000 spores per ml). The spores are collected from an infected plant and are suspended in water containing 2.5 ml/1 of Tween 80 at 10%. The contaminated wheat plants are incubated for 24 hours at 20° C. and at 100% relative humidity, and then for 10 days at 20° C. and at 70-80% relative humidity. Grading (% of efficacy) is carried out 12 days after the contamination, in comparison with the control plants.

Septoria tritici = test: In vivo preventive test on Septoria tritici (leaf spot on wheat); conditions: preventive spray, wheat plants, grading 24 days after contamination
Method: In Vivo Preventive Test on Septoria tritici (Leaf Spot on Wheat)
as §1
Wheat plants (“Scipion” variety), sown in starter cups on a 50/50 peat soil-pozzolana substrate and grown at 22° C., are treated at the 1-leaf stage (10 cm height) by spraying with the active ingredient prepared as described above. Plants, used as controls, are treated with the mixture of acetone/tween/DMSO/water not containing the active material.
After 24 hours, the plants are contaminated by spraying the leaves with an aqueous suspension of cryopreserved Septoria tritici spores (500 000 spores per ml). The contaminated wheat plants are incubated for 72 hours at 18° C. and at 100% relative humidity, and then for 21 days at 90% relative humidity.
Grading (% of efficacy) is carried out 24 days after the contamination, in comparison with the control plants.

Uromyces appendiculatus = test: In vivo preventive test on Uromyces appendiculatus (bean rust); conditions: preventive spray, bean plants, grading 11 days after contamination
Method: In Vivo Preventive Test on Uromyces appendiculatus (Bean Rust) […] Bean plants (“Saxa” variety), sown in starter cups on a 50/50 peat soil-pozzolana substrate and grown at 24° C., are treated at the 2-leaf stage (9 cm height) by spraying with the active ingredient prepared as described above. Plants, used as controls, are treated with the mixture of acetone/tween/DMSO/water not containing the active material. After 24 hours, the plants are contaminated by spraying the leaves with an aqueous suspension of Uromyces appendiculatus spores (150 000 spores per ml). The spores are collected from infected plants and are suspended in water containing 2.5 ml/1 of Tween 80 at 10%. The contaminated bean plants are incubated for 24 hours at 20° C. and at 100% relative humidity, and then for 10 days at 20° C. and at 70-80% relative humidity. Grading (% of efficacy) is carried out 11 days after the contamination, in comparison with the control plants.

Botrytis cinerea = test: In vivo preventive test on Botrytis cinerea (grey mould), gherkin plants; conditions: for Eff. %: gherkin, spray, graded 4 to 5 days after contamination vs control plants
Method: In Vivo Preventive Test on Botrytis cinerea (Grey Mould)
(§2) The active ingredients tested are prepared by homogenization in a mixture of acetone/tween/DMSO and then diluted with water to obtain the desired active material concentration.
(§3) Gherkin plants (“Vert petit de Paris” variety), sown in starter cups on a 50/50 peat soil-pozzolana substrate and grown at 24° C., are treated at the Z11 cotyledon stage by spraying with the active ingredient prepared as described above. Plants, used as controls, are treated with the mixture of acetone/tween/DMSO/water not containing the active material.
After 24 hours, the plants are contaminated by spraying the cotyledons with an aqueous suspension of cryopreserved Botrytis cinerea spores (50 000 spores per ml). The spores are suspended in a nutrient solution composed of 10 g/L of PDB, 50 g/L of D-Fructose, 2 g/L of NH4NO3 and 1 g/L of KH2PO4. The contaminated gherkin plants are incubated at 17° C. and at 90% relative humidity.
Grading (% of efficacy) is carried out 4 to 5 days after the contamination, in comparison with the control plants.

Sphaerotheca fuliginea = test: In vivo preventive test on Sphaerotheca fuliginea (powdery mildew on cucurbits); conditions: for Eff. %: preventive spray
Method: In Vivo Preventive Test on Sphaerotheca fuliginea (Powdery Mildew on Cucurbits)
as §2, §3
After 24 hours, the plants are contaminated by spraying the cotyledons with an aqueous suspension of Sphaerotheca fuliginea spores (100 000 spores per ml). The spores are collected from infected plants. The contaminated gherkin plants are incubated at about 20° C. and at 70-80% relative humidity.
Grading (% of efficacy) is carried out 12 days after the contamination, in comparison with the control plants.

[2] = 500 ppm, gherkin plants, grading 12 days after contamination
[3] = 100 ppm, gherkin plants, grading 12 days after contamination
[4] = dose 100 ppm of active ingredient, comparison with known compounds
[5] = dose 100 ppm, comparison with known compounds, same conditions

SMILES	logP^[a] [1]	Eff. % (Alternaria brassicae; dose 500 ppm) [%]	Eff. % (Pyrenophora teres; dose 500 ppm) [%]	Eff. % (Puccinia recondita; dose 500 ppm) [%]	Eff. % (Septoria tritici; 500 ppm) [%]	Eff. % (Uromyces appendiculatus; 500 ppm) [%]	Eff. % (Sphaerotheca fuliginea; [2]) [%]	Eff. % (Pyrenophora teres; dose 100 ppm) [%]	Eff. % (Puccinia recondita; dose 100 ppm) [%]	Eff. % (Septoria tritici; 100 ppm) [%]	Eff. % (Sphaerotheca fuliginea; [3]) [%]	Eff. % (Uromyces appendiculatus; 100 ppm) [%]	further results
CC1CCc2cccc(NC(=O)c3cccnc3C(F)F)c21 (racemic) [Example 4]	2.63^[a]	71	75	97	100	100							
CC(C)(C)C1CCc2c(NC(=O)c3cccnc3C(F)F)cccc21 (racemic) [Example 39]	3.78^[a]		83	98	86	100	94						
CCCCON=C1CC(C)c2c(NC(=O)c3cccnc3C(F)F)cccc21 (racemic) [Example 51]	3.18^[a]	93	83	75		70							
CCON=C1CC(C)c2c(NC(=O)c3cccnc3C(F)F)cccc21 (racemic) [Example 52]	2.71^[a]	86	75		86	93							
CC1CC(C)(C)c2cccc(NC(=O)c3ccccc3C(F)F)c21 (centres unmarked) [2-(difluoromethyl)-N-(1,1,3-trimethyl-2,3-dihydro-1H-inden-4-yl)benzamide, reference compound]													protection (in words) (Botrytis cinerea; [4]): no protection at all; Efficacy (Botrytis cinerea; [5]): 0%; protection (in words) (Pyrenophora teres; [4]): lower protection; Efficacy (Pyrenophora teres; [5]): 0%; protection (in words) (Puccinia recondita; [4]): low protection; Efficacy (Puccinia recondita; [5]): 83%; protection (in words) (Sphaerotheca fuliginea; [4]): lower protection; Efficacy (Sphaerotheca fuliginea; dose 100 ppm, comparison with prior-art compounds, gherkin plants, grading 12 days after contamination): 0%
CC1CC(C)(C)c2c(F)ccc(NC(=O)c3cccnc3C(F)F)c21 (centres unmarked) [Example 2]	3.35^[a]	98		100	100	100	100						Eff. % (Botrytis cinerea; dose 500 ppm): 97%
CC1Cc2c(NC(=O)c3cccnc3C(F)F)cccc2C1C (centres unmarked) [Example 36]	3.06^[a]		75	98		100							
CCC1Cc2c(NC(=S)c3cccnc3C(F)F)cccc2C1(C)C (centres unmarked) [Example 69]	4.16^[a]							70	100	80	100	100	
CC(C)(C)CC1CCc2cccc(NC(=O)c3cccnc3C(F)F)c21 (centres unmarked) [Example 90]	3.92^[a]							86	98	96	100	100	Eff. % (Alternaria brassicae; dose 100 ppm): 93%; Eff. % (Botrytis cinerea; dose 100 ppm): 80%

More lines, main results first:

logP^[a] [1]	SMILES	Eff. % (Alternaria brassicae; dose 500 ppm) [%]	Eff. % (Pyrenophora teres; dose 500 ppm) [%]	Eff. % (Puccinia recondita; dose 500 ppm) [%]	Eff. % (Septoria tritici; 500 ppm) [%]	Eff. % (Uromyces appendiculatus; 500 ppm) [%]	Eff. % (Sphaerotheca fuliginea; [2]) [%]	Eff. % (Pyrenophora teres; dose 100 ppm) [%]	Eff. % (Puccinia recondita; dose 100 ppm) [%]	Eff. % (Septoria tritici; 100 ppm) [%]	Eff. % (Sphaerotheca fuliginea; [3]) [%]	Eff. % (Uromyces appendiculatus; 100 ppm) [%]	further results
2.11^[a]	CC1OC(C)(C)c2cccc(NC(=O)c3cccnc3C(F)F)c21 (racemic) [Example 12]		86	100	96	100							Eff. % (Botrytis cinerea; dose 500 ppm): 100%
3.64^[a]	CCC1(CC)OC(C(C)C)c2c(NC(=O)c3cccnc3C(F)F)cccc21 (racemic) [Example 56]	93	92	88	93	100	98						
2.73^[a]	CC(C)C1OC(C)(C)c2cccc(NC(=O)c3cccnc3C(F)F)c21 (racemic) [Example 76]							92	94	97	98	96	Eff. % (Alternaria brassicae; dose 100 ppm): 75%; Eff. % (Botrytis cinerea; dose 100 ppm): 98%
3.78^[a]	CC(C)C1c2cccc(NC(=O)c3cccnc3C(F)F)c2CC1C (centres unmarked) [Example 27]		83	100	86	100	100						Eff. % (Botrytis cinerea; dose 500 ppm): 100%
3.48^[a]	CC1c2c(NC(=O)c3cccnc3C(F)F)cccc2C(C)(C)C1C (centres unmarked) [Example 33]	100		100	100	100	100						Eff. % (Botrytis cinerea; dose 500 ppm): 97%
4.46^[a]	CC(C)C1Cc2c(NC(=S)c3cccnc3C(F)F)cccc2C1(C)C (centres unmarked) [Example 65]							70	98	80	98	100	Eff. % (Botrytis cinerea; dose 100 ppm): 100%
3.62^[a]	CC(C)CC1CCc2cccc(NC(=O)c3cccnc3C(F)F)c21 (centres unmarked) [Example 84]							75	97	100	100	100	Eff. % (Botrytis cinerea; dose 100 ppm): 99%
